Results: article PMC9228152, “New Amino Naphthoquinone Derivatives as Anti-Trypanosoma cruzi Agents Targeting Trypanothione Reductase” (Pharmaceutics, 2022)
Where two headings read alike, the source gives them in different places.

Key:
[1] = tested on: T. cruzi epimastigotes, NINOA strain; test: Growth inhibition of T. cruzi epimastigotes, NINOA strain; type: cell-based; details: Trypanosoma cruzi, 120 h, epimastigotes, NINOA strain; five days; means of three independent experiments; read-out: Epi NINOA IC50
Protocol: (§1) Epimastigotes from T. cruzi strains NINOA and INC-5 were cultured in BHI (brain heart infusion broth, 89%) axenic medium, as reported in [26], at an initial concentration of 1 × 10^6 parasites/mL, at 28 °C, supplemented with 10% foetal bovine serum and 1% sodium penicillin-streptomycin. […] On the last day, the absorbance of the cultures was measured and related to the control. All measurements were carried out in triplicate. No toxic effect was attributable to DMSO. Since parasite growth is exponential, the data were analysed according to a first order equation, and the respective growth constant (k), corresponding to the slope, was calculated for controls and parasites treated with different drug concentrations. From these measurements, percentage growth inhibition (%GI) and half-maximal inhibitory concentration (IC50) values were calculated.

[2] = tested on: T. cruzi epimastigotes, INC-5 strain; test: Growth inhibition of T. cruzi epimastigotes, INC-5 strain; type: cell-based, Trypanosoma cruzi; details: epimastigotes, INC-5 strain, five days, means of three independent experiments, read-out: Epi INC-5 IC50
Protocol: as §1

[3] = tested on: T. cruzi trypomastigotes, INC-5 strain; test: microbe, parasite or virus in culture; type: cell-based; details: Trypanosoma cruzi; bloodstream trypomastigotes, INC-5 strain; 24 h at 4 °C; read-out: Trypo INC-5 LC50 (half-maximal lytic concentration)
Protocol: (§2) Those compounds with the lowest IC50 values in the epimastigote studies of each strain were evaluated in trypomastigotes. For this purpose, bloodstream trypomastigotes of INC-5 and NINOA strains were used for peritoneal injection into 6−8-week-old CD1 mice. The peak of parasitemia was achieved after 4–6 weeks, at which time parasitised blood samples were obtained by cardiac puncture using sodium heparin as an anticoagulant and diluted to a concentration of 1 × 10^6 trypomastigotes/mL. 10 µL of each of the dilutions of the study compounds and Bzn, with these being placed in a 96-well plate, and 90 µL of infected blood was added, providing a final volume of 100 µL per well. The microplates were incubated at 4 °C for 24 h, and concentrations of 20 µM, 10 µM, and 5 µM of each compound were considered in these experiments. Each evaluation was performed in triplicate. Wells with untreated blood trypomastigotes were used as a negative lysis control and Bzn as a positive control. Then, the degree of lysis of trypomastigotes was determined by their reduction in number using an optical microscope according to the Brener–Pizzi method. For this purpose, 5 μL of blood was placed between a slide and a 13 × 13 coverslip. Mobile trypomastigotes were counted in 15 microscope fields at 40× magnification. Quantification of the degree of lysis for each case was expressed as a percentage considering the number of viable trypomastigotes with respect to the negative control. The half-maximal lytic concentration (LC50) was determined by linear regression. The experiments were carried out in accordance with the recommendations and approval of the local Ethics and Research Committee (Approval number: ENCB/CEI/078/2020).

[4] = tested on: T. cruzi trypomastigotes, NINOA strain; test: microbe, parasite or virus in culture; type: cell-based; details: Trypanosoma cruzi; bloodstream trypomastigotes, NINOA strain; 24 h at 4 °C; read-out: Trypo NINOA LC50 (half-maximal lytic concentration)
Protocol: as §2

J774 murine macrophages = test: Cytotoxicity on J774 macrophages (MTT); type: cell-based; details: J774 macrophages, MTT, 24 h, read-out: J774 IC50
Protocol: Cytotoxicity assays for the compounds selected for their trypanocidal activity were performed on J774 macrophage cells using the MTT method. For this purpose, 50,000 cells/well resuspended in RPMI medium and 2% foetal bovine serum were seeded in a 96-well plate and incubated for 24 h at 37 °C. […] After 24 h of incubation, the existing culture medium was replaced in the plate with fresh culture medium along with […] each of the compound dilutions (100 to 1.25 μM) and Bzn to a final volume of 100 µL per well. This plate was then incubated in 5% CO2 for 24 h at 37 °C. The controls used were cells with medium as a positive control and cells without culture medium as a negative control. After the 24 h incubation, the morphology of the macrophages was observed under a microscope and then the culture medium was removed again and the MTT solution (5 mg/mL) was added. After 1 h incubation at 37 °C, the absorbance at 570 nm was recorded on an Elisa Epoch reader. The following formula was used to calculate the % cytotoxicity: %cytotoxicity = (100 − (mean number of cells with treatment/cells without treatment) × 100).

[5] = tested on: NINOA strain of T. cruzi trypomastigotes; set-up: method as in PMID 31709599; details: cited from earlier work
J774 cells = tested on: J774 cells; set-up: method as in PMID 31709599; details: cited from earlier work
recombinant TcTR = recombinant TcTR (Trypanosoma cruzi, UniProt P28593); test: Trypanothione reductase inhibition assay (TS2-dependent NADPH oxidation); type: biochemical; details: for Ki: mixed-type inhibition, global nonlinear regression
Protocol: The inhibition of TcTR activity by 7j was evaluated by monitoring the trypanothione disulphide (TS2)-dependent NADPH oxidation by using the assay described before. The reaction mixture contained assay buffer (40 mM HEPES pH 7.4, 1 mM EDTA), recombinant TcTR (88-168 ng/mL), NADPH (the concentration depended on experiment), and different 7j concentrations when required, in a volume of 500 μL. The mixture was incubated at 37 °C for 3 min, and TS2 was added to start the reaction. The absorbance at 340 nm was recorded in real time for 10 min, and the activity was calculated from the slope of the curves as μmol of NADPH oxidised per min (e^340 = 6.22 mM^−1 cm^−1).

[6] = tested on: Y strain of T. cruzi epimastigote; set-up: method as in doi:10.1039/C5RA10122K; details: read-out: IC50 against Y strain of T. cruzi epimastigote; cited from earlier work
[7] = tested on: epimastigotes of the Tulahuén strain; set-up: method as in PMID 25127463; details: read-out: IC50 against epimastigotes of the Tulahuén strain; cited from earlier work
T. cruzi trypomastigotes = tested on: T. cruzi trypomastigotes; set-up: method as in PMID 30670432; details: cited from earlier work
[8] = tested on: trypomastigote cultures (Y strain); set-up: method as in PMID 28215783; details: cited from earlier work
[9] = alpha of the mixed-type inhibitor equation, replots of slope and 1/v axis intercept vs. 7j

Sequence of recombinant TcTR (P28593 whole entry): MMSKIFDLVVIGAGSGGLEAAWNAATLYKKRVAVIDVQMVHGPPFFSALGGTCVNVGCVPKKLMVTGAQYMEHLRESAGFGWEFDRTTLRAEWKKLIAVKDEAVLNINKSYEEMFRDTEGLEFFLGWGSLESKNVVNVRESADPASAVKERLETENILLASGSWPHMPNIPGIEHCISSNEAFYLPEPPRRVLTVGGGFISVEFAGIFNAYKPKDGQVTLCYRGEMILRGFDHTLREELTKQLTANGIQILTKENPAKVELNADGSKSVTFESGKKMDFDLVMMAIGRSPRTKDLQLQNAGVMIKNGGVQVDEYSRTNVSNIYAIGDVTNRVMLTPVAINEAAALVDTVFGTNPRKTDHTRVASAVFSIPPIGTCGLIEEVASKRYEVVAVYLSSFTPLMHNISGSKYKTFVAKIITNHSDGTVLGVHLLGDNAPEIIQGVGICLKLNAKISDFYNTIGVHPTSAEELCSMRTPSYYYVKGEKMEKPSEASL

Work on `O=C(Cn1ccnc1[N+](=O)[O-])NCc1ccccc1` [Bzn, benznidazole, reference compound] yielded an IC50 [1] of 8.21 ± 1.8 µM, an IC50 ([2]; Trypanosoma cruzi, 120 h) of 42.3 ± 5.8 µM and an LC50 [3] of 85.6 ± 4.23 µM. The LC50 [4] was > 100 µM, the IC50 (J774 murine macrophages; Mus musculus, J774, 24 h) was 352 µM and the IC50 [5] was 40.7 µM. The IC50 (J774 cells) was 352 µM.

In the case of `O=C1C(Cl)=C(N2CCC(NC(=O)c3cccc4ccccc34)CC2)C(=O)c2ccccc21` [Compound 7j, N-(1-(3-chloro-1,4-dioxo-1,4-dihydronaphthalen-2-yl)piperidin-4-yl)-1-naphthamide], the IC50 ([2]; Trypanosoma cruzi, 120 h) is reported as < 1 µM, the IC50 [2] is reported as 0.92 ± 0.01 µM and the LC50 [3] is reported as 59.7 ± 3.72 µM. It also gave an LC50 [4] of 98.1 ± 8.9 µM, an IC50 (J774 murine macrophages) of 33 µM and an IC50 (J774 murine macrophages; Mus musculus, J774, 24 h) of ~25 µM. The “α NADPH” value (recombinant TcTR; [9]) was 1.12, the “α TS2” value (recombinant TcTR; [9]) was 0.77 and the Ki (recombinant TcTR; NADPH varied, TS2 fixed 200 µM, read-out: Ki 7j vs. NADPH) was 18 ± 3.5 µM. The Ki (recombinant TcTR; TS2 varied, NADPH fixed 160 µM, read-out: Ki 7j vs. TS2) was 28 ± 4.5 µM and the “Type of enzyme inhibition” value (recombinant TcTR; with respect to both substrates, TS2 and NADPH, Lineweaver-Burk plots) was “simple mixed-type inhibitor”.

For `O=C1C=C(Oc2cccc([N+](=O)[O-])c2)C(=O)c2ccccc21` [II, 2-(3-nitrophenoxy)-1,4-naphthoquinone], the IC50 [6] is given as 0.02 µM.

In the case of `Cc1ccc(OC2=C(Cl)C(=O)c3ccccc3C2=O)cc1[N+](=O)[O-]` [III], the IC50 [5] is given as 9.38 µM and the IC50 (J774 cells) is given as 117 µM.

For `CCCCCCOc1ccc(NC2=CC(=O)c3ccccc3C2=O)cc1` [I], the IC50 [7] is given as 1.72 µM.

For `O=C(Nc1nc(-c2ccccc2)c[nH]1)N1CCN(c2ccc(C(F)(F)F)cc2[N+](=O)[O-])CC1` [VI], the IC50 (T. cruzi trypomastigotes) is listed as 2.2 µM.

In the case of `Clc1ccc2nccc(NCCN3CCOCC3)c2c1` [V], the IC50 [8] is given as 67.7 µM.
